Laboratory results as given in patent US11180487B2, “Substituted cyanoindoline derivatives as NIK inhibitors” (Janssen Pharmaceutica NV, priority 2016, dated 2021).
Read-outs that look alike come from different tables or passages of the source.

Columns and labels:
[1] = target: recombinant human NF-kappaB-inducing kinase (NIK/MAP3K14) (Homo sapiens, UniProt Q99558); experiment: Inhibition of auto-phosphorylation of recombinant human NIK/MAP3K14 activity (AlphaScreen), Biological Assay A; format: biochemical; settings: averaged values over all measurements on all batches
Chain of recombinant human NF-kappaB-inducing kinase (NIK/MAP3K14) (Q99558 whole entry): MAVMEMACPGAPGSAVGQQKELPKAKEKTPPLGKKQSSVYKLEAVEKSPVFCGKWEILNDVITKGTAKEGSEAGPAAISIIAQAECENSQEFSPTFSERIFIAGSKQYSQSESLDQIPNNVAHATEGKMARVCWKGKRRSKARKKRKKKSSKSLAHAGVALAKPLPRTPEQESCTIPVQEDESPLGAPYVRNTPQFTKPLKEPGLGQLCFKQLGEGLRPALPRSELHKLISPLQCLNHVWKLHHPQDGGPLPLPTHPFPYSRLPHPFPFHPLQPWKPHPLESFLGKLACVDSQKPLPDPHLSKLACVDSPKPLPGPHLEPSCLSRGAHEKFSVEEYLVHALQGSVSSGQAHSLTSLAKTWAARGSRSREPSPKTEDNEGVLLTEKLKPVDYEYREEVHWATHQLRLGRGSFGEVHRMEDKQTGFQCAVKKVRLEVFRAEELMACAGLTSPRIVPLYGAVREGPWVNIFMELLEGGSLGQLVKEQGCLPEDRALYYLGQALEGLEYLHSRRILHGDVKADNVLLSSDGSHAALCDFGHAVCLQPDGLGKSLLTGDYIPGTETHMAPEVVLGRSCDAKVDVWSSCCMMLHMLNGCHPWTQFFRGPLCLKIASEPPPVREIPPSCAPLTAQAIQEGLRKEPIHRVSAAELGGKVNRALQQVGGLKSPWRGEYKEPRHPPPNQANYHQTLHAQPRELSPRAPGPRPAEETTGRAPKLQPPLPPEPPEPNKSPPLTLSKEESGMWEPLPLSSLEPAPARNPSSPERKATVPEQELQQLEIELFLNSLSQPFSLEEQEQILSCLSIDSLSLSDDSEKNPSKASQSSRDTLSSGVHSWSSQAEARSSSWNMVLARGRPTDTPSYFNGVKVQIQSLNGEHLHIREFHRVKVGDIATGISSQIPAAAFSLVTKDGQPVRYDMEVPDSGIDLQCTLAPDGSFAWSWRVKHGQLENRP
Protocol: Inhibition of Auto-Phosphorylation of Recombinant Human NF-kappaB-Inducing Kinase (NIK/MAP3K14) Activity (AlphaScreen®)
NIK/MAP3K14 auto-phosphorylation activity was measured using the AlphaScreen® (αscreen) format (Perkin Elmer). All compounds tested were dissolved in dimethyl sulfoxide (DMSO) and further dilutions were made in assay buffer. Final DMSO concentration was 1% (v/v) in assays. Assay buffer was 50 mM Tris pH 7.5 containing 1 mM EGTA (ethylene glycol tetraacetic acid), 1 mM DTT (dithiothreitol), 0.1 mM Na3VO4, 5 mM MgCl2, 0.01% Tween® 20. Assays were carried out in 384 well Alphaplates (Perkin Elmer). Incubations consisted of compound, 25 microM Adenosine-5′-triphosphate (ATP), and 0.2 nM NIK/MAP3K14. Incubations were initiated by addition of GST-tagged NIK/MAP3K14 enzyme, carried out for 1 h at 25° C. and terminated by addition of stop buffer containing anti-phospho-IKK Ser176/180 antibody. Protein A Acceptor and Glutathione-Donor beads were added before reading using an EnVision® Multilabel Plate Reader (Perkin Elmer). Signal obtained in the wells containing blank samples was subtracted from all other wells and IC50's were determined by fitting a sigmoidal curve to % inhibition of control versus Log10 compound concentration.

[2] = system: JJN-3 (NIK translocated) multiple myeloma cells; experiment: Antiproliferative activity on JJN-3 multiple myeloma cells (CellTiter-Glo, 96 hr), Biological Assay C; format: cell-based, human; settings: JJN-3 (NIK translocated) cells, averaged values, read-out: JJN-3 Proliferation inhibition (IC50 (nM))
Protocol: (§1) Determination of Antiproliferative Activity on JJN-3 (NIK Translocated) and KMS12-BM (NIK WT) Multiple Myeloma Cells
(§2) All compounds tested were dissolved in DMSO and further dilutions were made in culture medium. Final DMSO concentration was 0.3% (v/v) in cell proliferation assays. Viability was assessed using CellTiter-Glo cell viability assay kit (Promega). The human JJN-3 and KMS12-BM cells (DSMZ) were cultured in RPMI 1640 medium supplemented with 2 mM L-glutamine, and 10% fetal calf serum (PAA). Cells were routinely kept as suspension cells at 37° C. in a humidified 5% CO2 atmosphere. Cells were passaged at a seeding density of 0.2×10^6/ml twice a week. Cells were seeded in black tissue culture treated 96-well plates (Perkin Elmer). Densities used for plating ranged from 15000 (JJN3) to 20000 (KMS12BM) cells per well in a total volume of 135 μl medium. Drugs and/or solvents were added (15 μl) to a final volume of 150 μl. Following 96 hr of treatment, plates were removed from the incubator and allowed to equilibrate to room temperature for approx 10 min. 75 μl CellTiter-Glo reagent was added to each well that was then covered (Perkin Elmer Topseal) and shaken on plate shaker for 10 min. Luminescence was measured on a HTS Topcount (Perkin Elmer).
(§3) Within an experiment, the results for each treatment were the mean of 2 replicate wells. For initial screening purposes, compounds were tested using a 9 point dilution curve (serial 1:3 dilutions). For each experiment, controls (containing no drug) and a blank incubation (containing cells read at the time of compound addition) were run in parallel. The blank value was subtracted from all control and sample values. For each sample, the mean value for cell growth (in relative light units) was expressed as a percentage of the mean value for cell growth of the control.

[3] = system: KMS12-BM (NIK WT) multiple myeloma cells; experiment: Antiproliferative activity on KMS12-BM multiple myeloma cells (CellTiter-Glo, 96 hr), Biological Assay C; format: cell-based, human; settings: averaged values, read-out: KMS-12 Proliferation inhibition (IC50 (nM))
Protocol: as §1, §2, §3

SMILES | IC50 [1] | IC50 ([2]; Homo sapiens, JJN-3, 96 h) | IC50 ([3]; Homo sapiens, KMS-12-BM, 96 h) | melting point | IC50 [2] | IC50 [3]
CC1(C)CNc2c(C#N)cc(-c3ccnc(Nc4ccccc4C(=O)N4CCC(O)C4)n3)cc21 (stereo not drawn) [Compound 111] | 3550 nM | 3470 nM | > 10000 nM | 219 °C | – | –
CN(C)C(=O)Cc1ccc(Cl)cc1Nc1nccc(-c2cc(C#N)c3c(c2)C(C)(CO)CN3)n1 (stereo not drawn) [Compound 54] | 9.8 nM | 275 nM | > 10000 nM | 154 °C | – | –
COCCOc1cc(C2CCOCC2)ccc1Nc1nccc(-c2cc(C#N)c3c(c2)[C@@](C)(CO)CN3)n1 [Compound 61] | 11 nM | 186 nM | > 10000 nM | – | – | –
COCCCc1ccc(Cl)cc1Nc1nccc(-c2cc(C#N)c3c(c2)[C@@](C)(CO)CN3)n1 [Compound 72] | 11 nM | 123 nM | > 10000 nM | 189 °C | – | –
COCCOc1ccc(Cl)cc1Nc1nccc(-c2cc(C#N)c3c(c2)C(C)(CO)CN3)n1 (stereo not drawn) [Compound 34] | 20.9 nM | 316 nM | > 10000 nM | 184 °C | – | –
COCCOc1ccc(Cl)cc1Nc1nccc(-c2cc(C#N)c3c(c2)[C@](C)(CO)CN3)n1 [Compound 57] | 50.1 nM | > 10000 nM | > 10000 nM | 188 °C | – | –
COCCN1CCN(c2cc(OC)c(Nc3nccc(-c4cc(C#N)c5c(c4)C(C)(C)CN5)n3)cc2Cl)CC1 [Compound 89] | 20.9 nM | ~100 nM | > 10000 nM | – | – | –
COc1cc(N2CCN(C3CC3)CC2)c(Cl)cc1Nc1nccc(-c2cc(C#N)c3c(c2)C(C)(C)CN3)n1 [Compound 98] | 129 nM | 105 nM | > 10000 nM | – | – | –
COCc1cc(OC)c(Nc2nccc(-c3cc(C#N)c4c(c3)C(C)(C)CN4)n2)cc1Cl [Compound 88] | 85.1 nM | 178 nM | > 10000 nM | – | – | –
COc1cc(C(=O)NC2CC(F)(F)C2)c(Cl)cc1Nc1nccc(-c2cc(C#N)c3c(c2)C(C)(C)CN3)n1 [Compound 118] | 25.7 nM | 933 nM | > 10000 nM | – | – | –
CC(C)Oc1ccc(C(F)(F)F)cc1Nc1nccc(-c2cc(C#N)c3c(c2)C(C)(CO)CN3)n1 (stereo not drawn) [Compound 76] | 186 nM | 2340 nM | > 10000 nM | – | – | –
COc1cc(N2CCC(OC)CC2)c(Cl)cc1Nc1nccc(-c2cc(C#N)c3c(c2)C(C)(C)CN3)n1 [Compound 92] | 138 nM | 389 nM | > 10000 nM | – | – | –
COC(=O)c1cc(Nc2nccc(-c3cc(C#N)c4c(c3)C(C)(CO)CN4)n2)cc(C(F)(F)F)c1 (stereo not drawn) [Compound 77] | 46.8 nM | 126 nM | ~2460 nM | – | – | –
CC1(C)CNc2c(C#N)cc(-c3ccnc(Nc4cc(Cl)ccc4S(C)(=O)=O)n3)cc21 [Compound 90] | 219 nM | > 10000 nM | > 10000 nM | – | – | –
COCCN1CCC(c2cc(OC)c(Nc3nccc(-c4cc(C#N)c5c(c4)C(C)(C)CN5)n3)cc2C)CC1 [Compound 94] | 9.8 nM | 166 nM | > 10000 nM | – | – | –
COc1cc(C(=O)N2CC3CC(C2)C3O)c(Cl)cc1Nc1nccc(-c2cc(C#N)c3c(c2)C(C)(C)CN3)n1 (stereo not drawn) [Compound 120] | 15.5 nM | 25 nM | > 10000 nM | – | – | –
COc1cc(N2CCN(C(C)C)CC2)c(Cl)cc1Nc1nccc(-c2cc(C#N)c3c(c2)C(C)(C)CN3)n1 [Compound 93] | 11.5 nM | 83 nM | > 10000 nM | – | – | –
COc1cc(N2CCC(O)C2)c(Cl)cc1Nc1nccc(-c2cc(C#N)c3c(c2)C(C)(C)CN3)n1 (stereo not drawn) [Compound 97] | 45.7 nM | 59 nM | 4360 nM | – | – | –
C[C@]1(CO)CNc2c(C#N)cc(-c3ccnc(Nc4ccccc4P(C)(C)=O)n3)cc21 [Compound 62] | 912 nM | – | – | 228 °C | – | –
COc1cc(OCCN2CCN(C)CC2)c(Cl)cc1Nc1nccc(-c2cc(C#N)c3c(c2)C(C)(C)CN3)n1 [Compound 95] | 9.3 nM | 129 nM | > 10000 nM | – | – | –
CNCCOc1ccc(Cl)cc1Nc1nccc(-c2cc(C#N)c3c(c2)C(C)(C)CN3)n1 [Compound 109] | 53.7 nM | 676 nM | – | 152 °C | – | –

The remaining lines, values ahead:

IC50 [1] | IC50 ([2]; Homo sapiens, JJN-3, 96 h) | IC50 ([3]; Homo sapiens, KMS-12-BM, 96 h) | melting point | IC50 [2] | IC50 [3] | SMILES
5.3 nM | 2340 nM | > 10000 nM | 295 °C | – | – | COc1ccc(C#N)cc1Nc1nccc(-c2cc(C#N)c3c(c2)C(C)(CO)CN3)n1 (stereo not drawn) [Compound 31]
2.2 nM | 19 nM | 490 nM | 206 °C | – | – | COc1cc(C(=O)N2CC3(CCNCC3)C2)c(Cl)cc1Nc1nccc(-c2cc(C#N)c3c(c2)C(C)(C)CN3)n1 [Compound 114]
3.2 nM | 39 nM | 1100 nM | 240 °C | – | – | Cc1cc(C(=O)NCC2COC2)c(F)cc1Nc1nccc(-c2cc(C#N)c3c(c2)[C@@](C)(CO)CN3)n1 [Compound 187]
3.6 nM | 33 nM | 1260 nM | 245 °C | – | – | Cc1c(Nc2nccc(-c3cc(C#N)c4c(c3)C(C)(CO)CN4)n2)cc(Cl)cc1C(=O)N(C)C (stereo not drawn) [Compound 53]
2.5 nM | 9 nM | 251 nM | 237 °C | – | – | CN1CCC(Oc2ccc(Nc3nccc(-c4cc(C#N)c5c(c4)C(C)(CO)CN5)n3)cc2C(F)(F)F)CC1 (stereo not drawn) [Compound 43]
2.6 nM | 28 nM | ~407 nM | 178 °C | – | – | COc1cc(C(=O)N2CC3(CCCNC3)C2)c(Cl)cc1Nc1nccc(-c2cc(C#N)c3c(c2)C(C)(C)CN3)n1 [Compound 113]
4.2 nM | 193 nM | > 10000 nM | – | – | – | COc1cc(C(=O)N2CC(O)C2)c(Cl)cc1Nc1nccc(-c2cc(C#N)c3c(c2)C(C)(C)CN3)n1 [Compound 110]
6.8 nM | – | – | – | 162 nM | > 10000 nM | COc1cc(C(=O)NC2CCC(O)C2)c(Cl)cc1Nc1nccc(-c2cc(C#N)c3c(c2)C(C)(C)CN3)n1 (stereo not drawn) [Compound 116]
4.7 nM | 19 nM | 1550 nM | – | – | – | COc1cc(C(=O)N2CC3C(CO)C3C2)c(Cl)cc1Nc1nccc(-c2cc(C#N)c3c(c2)C(C)(C)CN3)n1 (stereo not drawn) [Compound 117]
7.1 nM | 28 nM | 1380 nM | – | – | – | COc1cc(C(=O)N2CCCC(O)CC2)c(Cl)cc1Nc1nccc(-c2cc(C#N)c3c(c2)C(C)(C)CN3)n1 (stereo not drawn) [Compound 119]
4.9 nM | 166 nM | > 10000 nM | – | – | – | COc1cc(C(=O)NC2CCC(O)C2)c(Cl)cc1Nc1nccc(-c2cc(C#N)c3c(c2)C(C)(C)CN3)n1 (stereo not drawn) [Compound 115]
6.9 nM | – | – | 252 °C | – | – | CNC(=O)c1ccc(C)c(Nc2ncnc(-c3cc(C#N)c4c(c3)[C@@](C)(CO)CN4)n2)c1 [Compound 214]
7.2 nM | ~107 nM | > 10000 nM | – | – | – | CCN1CCN(c2cc(C)c(Nc3nccc(-c4cc(C#N)c5c(c4)C(C)(C)CN5)n3)cc2Cl)CC1 [Compound 91]
9.1 nM | ~81 nM | > 10000 nM | – | – | – | COc1cc(S(C)(=O)=O)c(F)cc1Nc1nccc(-c2cc(C#N)c3c(c2)C(C)(C)CN3)n1 [Compound 96]
4.7 nM | 35 nM | ~4470 nM | – | – | – | COc1cc(C(=O)N2CC[C@@H]3CNC[C@@H]32)c(Cl)cc1Nc1nccc(-c2cc(C#N)c3c(c2)C(C)(C)CN3)n1 (relative stereo) [Compound 122]
1.6 nM | 525 nM | 437 nM | – | – | – | COc1cc(C(=O)NC2CNCC2O)c(Cl)cc1Nc1nccc(-c2cc(C#N)c3c(c2)C(C)(C)CN3)n1 (mixture of isomers) [Compound 124]
